Test results: PubChem BioAssay AID330 (DTP/NCI, 2004)
Inconclusive results and toxic doses are left out. The calls were made as follows: active = survival T/C of 150% or more; inactive = T/C below 125% in these data.

Test system: P388 leukemia ip, CD2F1 mice, survival T/C
Assay: NCI In Vivo Anticancer Drug Screen. Data for tumor model P388 Leukemia (intraperitoneal) in CD2F1 (CDF1) mice
Settings: endpoint: median survival time, higher = longer survival
Summary of the method: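 Mice carrying the transplanted tumor received test compound or vehicle. Survival was recorded in each group, and the value is the treated-group measurement divided by that of the vehicle-treated control group.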

[1] = dose: 100.0 mg/kg/injection, schedule: Q01DX005 (ip), vehicle: saline with Tween-80
[2] = dose: 200.0 mg/kg/injection, schedule: Q01DX005 (ip), vehicle: saline with Tween-80
[3] = dose: 50.0 mg/kg/injection, schedule: Q01DX005 (ip), vehicle: saline with Tween-80
[4] = dose: 50.0 mg/kg/injection, schedule: Q01DX009 (ip), vehicle: Klucel (hydroxypropylcellulose) (HPC)
[5] = dose: 100.0 mg/kg/injection, schedule: Q01DX009 (ip), vehicle: Klucel (hydroxypropylcellulose) (HPC)
[6] = dose: 200.0 mg/kg/injection, schedule: Q01DX009 (ip), vehicle: Klucel (hydroxypropylcellulose) (HPC)
[7] = dose: 60.0 mg/kg/injection, schedule: Q01DX005 (ip), vehicle: saline with Tween-80
[8] = dose: 120.0 mg/kg/injection, schedule: Q01DX005 (ip), vehicle: saline with Tween-80
[9] = dose: 240.0 mg/kg/injection, schedule: Q01DX005 (ip), vehicle: saline with Tween-80
[10] = dose: 50.0 mg/kg/injection, schedule: Q01DX005 (ip), vehicle: Klucel (hydroxypropylcellulose) (HPC)
[11] = dose: 100.0 mg/kg/injection, schedule: Q01DX005 (ip), vehicle: Klucel (hydroxypropylcellulose) (HPC)
[12] = dose: 200.0 mg/kg/injection, schedule: Q01DX005 (ip), vehicle: Klucel (hydroxypropylcellulose) (HPC)
[13] = dose: 25.0 mg/kg/injection, schedule: Q01DX009 (ip), vehicle: saline with Tween-80
[14] = dose: 50.0 mg/kg/injection, schedule: Q01DX009 (ip), vehicle: saline with Tween-80
[15] = dose: 100.0 mg/kg/injection, schedule: Q01DX009 (ip), vehicle: saline with Tween-80

Measured: T/C

COc1cc(OC)c(C2SCC(=O)N2c2nnc(C(F)(F)F)s2)c(OC)c1 (stereo not drawn)
inactive: dose: 50.0 mg/kg/injection, schedule: Q01DX005 (ip), vehicle: saline + Tween-80 + alcohol 109 % of control | dose: 100.0 mg/kg/injection, schedule: Q01DX005 (ip), vehicle: saline + Tween-80 + alcohol 102 % of control | dose: 200.0 mg/kg/injection, schedule: Q01DX005 (ip), vehicle: saline + Tween-80 + alcohol 92 % of control

Cc1cc(C)c(C#N)c(SCC#CCSc2nc(C)cc(C)c2C#N)n1
inactive: dose: 1.5 mg/kg/injection, schedule: Q01DX005 (ip), vehicle: saline with Tween-80 103 % of control | dose: 3.0 mg/kg/injection, schedule: Q01DX005 (ip), vehicle: saline with Tween-80 103 % of control | dose: 6.0 mg/kg/injection, schedule: Q01DX005 (ip), vehicle: saline with Tween-80 94 % of control | dose: 6.25 mg/kg/injection, schedule: Q01DX005 (ip), vehicle: saline with Tween-80 89 % of control | [1] 91 % of control | [2] 91 % of control

N/C(=N\C(O)C(Cl)(Cl)Cl)SCNC(=O)NCS/C(N)=N/C(O)C(Cl)(Cl)Cl (stereo not drawn)
inactive: [3] 105 % of control | [1] 100 % of control | [2] 95 % of control

NC(=O)c1nc2ccccn2c1[N+](=O)[O-]
inactive: [4] 99 % of control | [5] 101 % of control | [6] 108 % of control

O=C(Cn1ccnc1)N1CCN(c2ccccc2)CC1
inactive: [7] 100 % of control | [8] 94 % of control | [9] 96 % of control

CN1C(=O)C(=C2C=C(c3ccccc3)C(C#N)(c3ccccc3)C(c3ccccc3)=C2)C(=O)N(C)C1=O (stereo not drawn)
inactive: [10] 106 % of control | [11] 107 % of control | [12] 101 % of control

ClCc1ccc(CCl)c(Cl)c1Cl
inactive: [13] 100 % of control | dose: 25.0 mg/kg/injection, schedule: Q04DX003 (ip), vehicle: saline with Tween-80 100 % of control | [14] 95 % of control | dose: 50.0 mg/kg/injection, schedule: Q04DX003 (ip), vehicle: saline with Tween-80 95 % of control | [15] 95 % of control | dose: 100.0 mg/kg/injection, schedule: Q04DX003 (ip), vehicle: saline with Tween-80 95 % of control

CC1C2c3ccccc3C(c3ccccc32)C1C(=O)O (stereo not drawn)
inactive: [3] 98 % of control | [1] 100 % of control | [2] 107 % of control

CN1C(=O)C=CC1=O
inactive: dose: 0.5 mg/kg/injection, schedule: Q01DX009 (ip), vehicle: saline 96 % of control | dose: 1.0 mg/kg/injection, schedule: Q01DX009 (ip), vehicle: saline 103 % of control | dose: 2.0 mg/kg/injection, schedule: Q01DX009 (ip), vehicle: saline 100 % of control | dose: 4.0 mg/kg/injection, schedule: Q01DX009 (ip), vehicle: saline 101 % of control

Fc1cccc(CSC(=S)Nc2ccc(F)c(F)c2)c1
inactive: dose: 50.0 mg/kg/injection, schedule: Q01DX009 (ip), vehicle: saline 116 % of control | dose: 100.0 mg/kg/injection, schedule: Q01DX009 (ip), vehicle: saline 105 % of control | dose: 200.0 mg/kg/injection, schedule: Q01DX009 (ip), vehicle: saline 115 % of control

CCN(CC)Cc1cc(N=Nc2ccc3c(c2)c2ccccc2n3CC)c2ccccc2c1O
inactive: [14] 86 % of control | [15] 93 % of control | dose: 200.0 mg/kg/injection, schedule: Q01DX009 (ip), vehicle: saline with Tween-80 93 % of control

O=C(/C=C/c1ccccc1OCc1cc2ccccc2nc1Cl)c1ccccc1
inactive: dose: 100.0 mg/kg/injection, schedule: Q01DX001 (ip), vehicle: saline with Tween-80 87 % of control | dose: 200.0 mg/kg/injection, schedule: Q01DX001 (ip), vehicle: saline with Tween-80 90 % of control | dose: 400.0 mg/kg/injection, schedule: Q01DX001 (ip), vehicle: saline with Tween-80 90 % of control

CCCCCCCCCCCC(=O)/C=C/c1ccccc1
inactive: [4] 102 % of control | [5] 93 % of control | [6] 94 % of control

C=COC(=O)C(NC(=O)OCc1ccccc1)c1ccccc1 (stereo not drawn)
inactive: [3] 102 % of control | [1] 101 % of control | [2] 95 % of control

CCOc1ccc2c(ccc(/C=C\c3cc(C)c4cccnc4c3O)[n+]2C)c1
inactive: dose: 3.13 mg/kg/injection, schedule: Q01DX009 (ip), vehicle: saline with Tween-80 121 % of control | dose: 6.25 mg/kg/injection, schedule: Q01DX009 (ip), vehicle: saline with Tween-80 121 % of control

Cc1ccccc1NCC#N
inactive: dose: 12.5 mg/kg/injection, schedule: Q01DX009 (ip), vehicle: saline with Tween-80 100 % of control | [13] 100 % of control | [14] 104 % of control

c1ccc2c(c1)OC1OC2Oc2ccccc21
inactive: [7] 100 % of control | [8] 100 % of control | [9] 101 % of control

Cc1ccc2c(c1)sc1nnc(C)n12
inactive: [4] 114 % of control | [5] 97 % of control

COc1c2ccoc2nc2c(OCC=C(C)C)c3c(cc12)OCO3
inactive: dose: 5.0 mg/kg/injection, schedule: Q01DX005 (ip), vehicle: Klucel (hydroxypropylcellulose) (HPC) 101 % of control | dose: 10.0 mg/kg/injection, schedule: Q01DX005 (ip), vehicle: Klucel (hydroxypropylcellulose) (HPC) 100 % of control | dose: 20.0 mg/kg/injection, schedule: Q01DX005 (ip), vehicle: Klucel (hydroxypropylcellulose) (HPC) 100 % of control | dose: 40.0 mg/kg/injection, schedule: Q01DX005 (ip), vehicle: Klucel (hydroxypropylcellulose) (HPC) 101 % of control | dose: 80.0 mg/kg/injection, schedule: Q01DX005 (ip), vehicle: Klucel (hydroxypropylcellulose) (HPC) 94 % of control

CCOC(=O)/C=C1/C(=O)OC2C1OC1OC(C)(C)OC12 (stereo not drawn)
inactive: dose: 3.75 mg/kg/injection, schedule: Q01DX005 (ip), vehicle: saline with Tween-80 98 % of control | dose: 7.5 mg/kg/injection, schedule: Q01DX005 (ip), vehicle: saline with Tween-80 97 % of control

CC(=O)Nc1nc(Cl)c2[nH]cnc2n1
inactive: dose: 25.0 mg/kg/injection, schedule: Q01DX005 (ip), vehicle: Klucel (hydroxypropylcellulose) (HPC) 98 % of control | [10] 98 % of control | [11] 102 % of control | [12] 112 % of control

Cc1ccccc1NCN1C(=O)S/C(=C2\C(=O)N(C)c3ccc(Br)cc32)C1=O
inactive: [10] 95 % of control | [11] 92 % of control | [12] 90 % of control

CC(=O)[C-](C)C(C)=O.CC(=O)[C-](C)C(C)=O.CC(=O)[C-](C)C(C)=O.[Ru+3]
inactive: [3] 100 % of control | [1] 113 % of control | [2] 90 % of control

CC1CCC=CC(=O)C1 (stereo not drawn)
inactive: dose: 100.0 mg/kg/injection, schedule: Q04DX003 (ip), vehicle: Klucel (hydroxypropylcellulose) (HPC) 102 % of control | dose: 200.0 mg/kg/injection, schedule: Q04DX003 (ip), vehicle: Klucel (hydroxypropylcellulose) (HPC) 108 % of control

CC(=O)OC(OC(C)=O)c1ccc([N+](=O)[O-])c([N+](=O)[O-])c1
inactive: dose: 12.5 mg/kg/injection, schedule: Q01DX010 (ip), vehicle: saline 104 % of control | dose: 25.0 mg/kg/injection, schedule: Q01DX010 (ip), vehicle: saline 109 % of control | dose: 50.0 mg/kg/injection, schedule: Q01DX010 (ip), vehicle: saline 100 % of control

Cc1ccc(N=Nc2c(-c3cccs3)nn(C(=S)S)c2C(F)(F)F)cc1
inactive: [10] 92 % of control | [11] 92 % of control | [12] 87 % of control

C=C(C)C(=NC)NC(C)(C)C
inactive: [10] 100 % of control | [11] 102 % of control

O=C([O-])c1ccccc1[O-].[Cu+2].c1ccc(-c2ccccn2)nc1
inactive: dose: 6.25 mg/kg/injection, schedule: Q01DX005 (ip), vehicle: Klucel (hydroxypropylcellulose) (HPC) 104 % of control | dose: 12.5 mg/kg/injection, schedule: Q01DX005 (ip), vehicle: Klucel (hydroxypropylcellulose) (HPC) 113 % of control

Cc1cc(C2=CSC3=NCCN23)ccc1Cl
inactive: [3] 107 % of control | [1] 105 % of control

COC(=O)c1cc(OC)cc(C)c1OC(=Nc1cccc(Cl)c1C)c1ccccc1
inactive: [10] 97 % of control | [11] 92 % of control | [12] 96 % of control
